PubChem BioAssay (NCI)
Several values for one entry are separate records, joined by “and”; a condition that tells them apart may be missing. Equal entries are not always repeated.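 Cultured in 96-well plates, cells were exposed to test compound for 48 hours across five concentrations. Abbreviation: GI50, concentration required for 50% inhibition of growth. TGI: concentration producing complete growth inhibition.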 Where a SMILES comes first, the peptide text is derived from it. The star is where a group is joined. Cbz = O=C(OCc1ccccc1)*

Columns and labels:
Experiment in all cases: inhibition of tumour cell growth, NCI panel, 48 h
786-0 renal = tested on: 786-0 renal
UO-31 renal = tested on: UO-31 renal
HT29 colon = tested on: HT29 colon
SF-268 CNS = tested on: SF-268 CNS
OVCAR-5 ovarian = tested on: OVCAR-5 ovarian
MOLT-4 leukemia = tested on: MOLT-4 leukemia
HOP-62 NSCLC = tested on: HOP-62 NSCLC
MDA-MB-435 = tested on: MDA-MB-435
HOP-92 NSCLC = tested on: HOP-92 NSCLC
COLO 205 colon = tested on: COLO 205 colon
MDA-N = tested on: MDA-N

Row | Compound | TGI (786-0 renal) [µM] | TGI (UO-31 renal) | TGI (HT29 colon) | TGI (SF-268 CNS) | TGI (OVCAR-5 ovarian) | TGI (MOLT-4 leukemia) [µM] | TGI (HOP-62 NSCLC) | TGI (MDA-MB-435) | TGI (HOP-92 NSCLC) [µM] | TGI (COLO 205 colon) [µM] | TGI (MDA-N) | GI50 (UO-31 renal) [µM] | GI50 (HT29 colon) [µM] | GI50 (SF-268 CNS) [µM] | GI50 (OVCAR-5 ovarian) [µM] | GI50 (MOLT-4 leukemia) [µM] | GI50 (HOP-62 NSCLC) [µM] | GI50 (MDA-MB-435) [µM] | GI50 (MDA-N) [µM]
1 | O=C1CC(=O)NC(=NN2C(=O)/C(=C/c3ccc(Cl)c(Cl)c3)N=C2c2ccccc2)N1 | > 100 | > 100 µM | 44.4 µM | > 100 µM | > 100 µM | 50.8 | 79.6 µM | > 100 µM | 89.8 | 34.1 | 90.7 µM |  |  |  |  |  |  |  | 
2 | CC(=O)c1ccc2c(c1)C(=O)c1sc(C(C)=O)cc1C2=O | 50 | 2.15 µM and 2.69 µM | 2.82 µM and 9.47 µM | 3.85 µM and 3.41 µM | 2.36 µM and 3.92 µM |  | 8.16 µM and 7.25 µM | 2.63 µM and 0.33 µM | 50 | 7.94 | 2.02 µM and 3.38 µM | 1.4 | 2.71 | 0.819 | 1.87 | 0.0664 | 2.35 | 0.176 | 0.316
3 | O=C1/C(=C\c2cccc(Oc3ccccc3)c2)S(=O)(=O)C(c2ccccc2)N1c1cccc(Cl)c1 (stereo unspecified) | > 100 | > 100 µM | > 100 µM | > 100 µM | > 100 µM | > 100 | > 100 µM | > 100 µM | > 100 | > 100 | > 100 µM |  |  |  |  |  |  |  | 
4 | O=C1CCSCCC(=O)Nc2ccccc2N1 | > 100 | > 100 µM | > 100 µM | > 100 µM | > 100 µM | > 100 | > 100 µM | > 100 µM | > 100 | > 100 | > 100 µM |  |  |  |  |  |  |  | 
5 | COc1cc2c(cc1O)NC(=O)[C@@H]1CCCN1C2=O | > 100 | > 100 µM | > 100 µM | > 100 µM | > 100 µM | > 100 | > 100 µM | > 100 µM | > 100 | > 100 | > 100 µM |  |  |  |  |  |  |  | 
6 | CCOC(=O)CCC(NC(=O)OCc1ccccc1)C(=O)NC(CCC(=O)OCC)C(=O)OCC (stereo unspecified) (Cbz-Glu(OEt)-Glu(OEt)-OEt; configuration not given here) | > 100 | > 100 µM | > 100 µM | > 100 µM | > 100 µM | > 100 | > 100 µM | > 100 µM | > 100 | > 100 | > 100 µM |  |  |  |  |  |  |  | 
7 | COc1cc(Nc2nc3cc(C(F)(F)F)ccc3nc2C(=O)O)cc(OC)c1OC | > 100 | > 100 µM | > 100 µM | > 100 µM | > 100 µM | > 100 | > 100 µM | > 100 µM | 85 | > 100 | > 100 µM |  |  |  |  |  |  |  | 
8 | C/C=C\C(CC(=O)NCC(=O)c1c[nH]c2ccccc12)CC(=O)OC (stereo unspecified) | > 100 | > 100 µM | > 100 µM | > 100 µM | > 100 µM | > 100 | > 100 µM | > 100 µM | > 100 | > 100 | > 100 µM |  |  |  |  |  |  |  | 
9 | CCOC(=O)CCC(NC(=O)C(Cc1ccccc1)NC(=O)OCc1ccccc1)C(=O)OCC (stereo not drawn) (Cbz-Phe-Glu(OEt)-OEt; configuration not given here) | 32 | 31.2 µM | 42.1 µM | 34.5 µM | 32.6 µM | > 71.3 | 32.5 µM | 35.5 µM | 36.3 | 35.3 | 32.6 µM |  |  |  |  |  |  |  | 
